Experimental data taken from patent US20260070945A1, “MACROCYCLIC IMMUNOMODULATORS” (Bristol-Myers Squibb Company, priority 2022, published 2026).
pIC50: −log10 of the molar value. *1 amine or outer side, *2 acyl side, *3 side chain or, on linkers, in order; H or OH if unused. Where a SMILES comes first, the peptide text is derived from it. Bridges are numbered along the chain shown (N, C = ends). [ ]: non-standard residue; d: D form. The star is where a group is joined. ξ: configuration not given here. X15 = NCCCC[C@H](NC(=O)CNCCNCCN*)C(=O)NCCCCCCCCCCC(=O)O; Phe(3-CF3) = N[C@@H](Cc1cccc(C(F)(F)F)c1)C(=O)O; Phe(4-COOH) = N[C@@H](Cc1ccc(C(=O)O)cc1)C(=O)O; d(γGlu) = O=C(O)[C@@H](CCC(=O)[*:2])N[*:1]; Bip = N[C@@H](Cc1ccc(-c2ccccc2)cc1)C(=O)O; NH(CH2)14COOH = O=C(O)CCCCCCCCCCCCCCN*; Phe(3-Me) = Cc1cccc(C[C@H](N)C(=O)O)c1; Cyclopropanecarbonyl = O=C(C1CC1)*; Val(3-OH) = CC(C)(O)[C@H](N)C(=O)O; hArg = N=C(N)NCCCC[C@H](N)C(=O)O; Cha = N[C@@H](CC1CCCCC1)C(=O)O; Thr(3ξ) = CC(O)[C@H](N)C(=O)O; dCba = N[C@H](CC1CCC1)C(=O)O; 12Ado = NCCCCCCCCCCCC(=O)O; Carboxymethyl = O=C(O)C*; NMeA = CN[C@@H](C)C(=O)O; Orn = NCCC[C@H](N)C(=O)O; Aun = NCCCCCCCCCCC(=O)O; Dab = NCC[C@H](N)C(=O)O; Dap = NC[C@H](N)C(=O)O; AEEA = NCCOCCOCC(=O)O

These molecules were tested against T1, PD-1/PD-L1 interaction (PE-labeled human PD-L1-Ig binding to Jurkat cell line over-expressing human PD-1) (Homo sapiens, UniProt Q15116) (assay: Jurkat-PD-1 Cell Binding High-Content Screening Assay (CBA)). Conditions: Jurkat-hPD-1 cells, PE-labeled PD-L1-Ig 20 nM final; read-out: Jurkat HPD1 PDL1 IC50.
T1 construct: expressed in transfected cells; host or cells: Jurkat
T1 sequence (Q15116 25-288): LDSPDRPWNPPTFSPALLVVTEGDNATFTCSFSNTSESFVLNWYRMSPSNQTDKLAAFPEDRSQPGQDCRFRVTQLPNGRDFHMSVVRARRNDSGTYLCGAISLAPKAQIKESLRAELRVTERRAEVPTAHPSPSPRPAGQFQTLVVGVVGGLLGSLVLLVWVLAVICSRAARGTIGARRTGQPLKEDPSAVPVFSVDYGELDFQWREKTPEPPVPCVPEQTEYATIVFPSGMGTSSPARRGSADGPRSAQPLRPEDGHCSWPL
Summary of the method: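 Jurkat-hPD-1 cells (8×10^3/well) in DMEM with 10% fetal calf serum were preincubated with compound for 2 h at 37 °C. PE-labeled PD-L1-Ig was then added at 20 nM final for 1 h. Cells were fixed in paraformaldehyde with Hoechst 33342, washed and imaged by high-content imaging.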

| pIC50 | Structure (SMILES) |
| --- | --- |
| 6.80 | CC(=O)NCCCC[C@@H]1NC(=O)[C@H](Cc2ccc(-c3ccccc3)cc2)NC(=O)[C@H](C(C)C)NC(=O)[C@H](Cc2c[nH]c3ccccc23)NC(=O)[C@H](CC(=O)O)NC(=O)[C@H](Cc2ccc(OCC(=O)O)cc2)NC(=O)[C@H](C(C)O)NC(=O)CSC[C@@H](C(=O)N[C@@H](CCCN)C(=O)N[C@@H](CO)C(=O)NCCCCCCCCCCCC(=O)O)NC(=O)[C@H](CCCN)NC(=O)[C@H](C(C)C)NC(=O)[C@H](CC2CCCCC2)NC(=O)[C@H](CCN)NC(=O)[C@@H](CC(C)C)NC(=O)[C@H](C)N(C)C1=O (stereo partly drawn) [Example 2406] ({CH2CO}-[Thr(3ξ)]Y(Carboxymethyl)DWV[Bip]K(Ac)[NMeA][dL][Dab][Cha]V[Orn]C[Orn]S[12Ado]-OH; thioether N-14) |
| 7.49 | Cc1cccc(C[C@@H]2NC(=O)[C@H](CC(=O)O)NC(=O)[C@H](Cc3ccc(OCC(=O)O)cc3)NC(=O)[C@H](CN)NC(=O)CSC[C@@H](C(=O)NCCNCCNCC(=O)N[C@@H](CCCCN)C(=O)NCCCCCCCCCCC(=O)O)NC(=O)[C@H](CO)NC(=O)[C@H](C(C)C)NC(=O)[C@H](CC(C)C)NC(=O)[C@H](CC(N)=O)NC(=O)[C@@H](CC(C)C)NC(=O)[C@H](C)N(C)C(=O)[C@H](C(C)C)NC(=O)[C@H](Cc3ccc(-c4ccccc4)cc3)NC(=O)[C@H](CC(C)C)NC2=O)c1 [Example 1065] ({CH2CO}-[Dap]Y(Carboxymethyl)D[Phe(3-Me)]L[Bip]V[NMeA][dL]NLVSC-X15; thioether N-14) |
| 7.69 | Cc1cccc(C[C@@H]2NC(=O)[C@H](CC(=O)O)NC(=O)[C@H](Cc3ccc(OCC(=O)O)cc3)NC(=O)[C@H]([C@@H](C)O)NC(=O)CSC[C@@H](C(=O)N[C@@H](CCN)C(=O)NCCCCCCCCCCC(=O)O)NC(=O)[C@H](CCC(=O)O)NC(=O)[C@H](C(C)C)NC(=O)[C@H](CC3CCCCC3)NC(=O)[C@H](CCN)NC(=O)[C@@H](CC(C)C)NC(=O)[C@H](C)N(C)C(=O)[C@H](Cc3ccc(OCC(=O)O)cc3)NC(=O)[C@H](Cc3ccc(-c4ccccc4)cc3)NC(=O)[C@H](Cc3ccc(OCC(=O)O)cc3)NC2=O)c1 [Example 1422] ({CH2CO}-TY(Carboxymethyl)D[Phe(3-Me)]Y(Carboxymethyl)[Bip]Y(Carboxymethyl)[NMeA][dL][Dab][Cha]VEC[Dab][Aun]-OH; thioether N-14) |
| 7.85 | Cc1cccc(C[C@@H]2NC(=O)[C@H](CC(=O)O)NC(=O)[C@H](Cc3ccc(OCC(=O)O)cc3)NC(=O)[C@H](CCCCNC(=N)N)NC(=O)CSC[C@@H](C(=O)N[C@@H](CCN)C(=O)NCCCCCCCCCCC(=O)O)NC(=O)[C@H](C(C)O)NC(=O)[C@H](C(C)C)NC(=O)[C@H](CC3CCCCC3)NC(=O)[C@H](CCN)NC(=O)[C@@H](CC(C)C)NC(=O)[C@H](C)N(C)C(=O)[C@H](CCCCNC(=O)C3CC3)NC(=O)[C@H](Cc3ccc(-c4ccccc4)cc3)NC(=O)[C@H](Cc3ccc(O)cc3)NC2=O)c1 (stereo partly drawn) [Example 2399] ({CH2CO}-[hArg]Y(Carboxymethyl)D[Phe(3-Me)]Y[Bip]K(Cyclopropanecarbonyl)[NMeA][dL][Dab][Cha]V[Thr(3ξ)]C[Dab][Aun]-OH; thioether N-14) |
| 7.53 | CC(C)C[C@@H]1NC(=O)[C@H](Cc2c[nH]c3ccccc23)NC(=O)[C@H](CC(=O)O)NC(=O)[C@H](Cc2ccc(C(=O)O)cc2)NC(=O)[C@H](Cc2ccc(OCC(=O)O)cc2)NC(=O)CSC[C@@H](C(=O)N[C@@H](CCCN)C(=O)NCCOCCOCC(=O)NCCCCCCCCCCC(=O)O)NC(=O)[C@H](CO)NC(=O)[C@H](C(C)C)NC(=O)[C@H](CC2CCCCC2)NC(=O)[C@H](CCN)NC(=O)[C@@H](CC2CCC2)NC(=O)[C@H](C)N(C)C(=O)[C@H](C(C)C)NC(=O)[C@H](Cc2ccc(-c3ccccc3)cc2)NC1=O [Example 1249] ({CH2CO}-Y(Carboxymethyl)[Phe(4-COOH)]DWL[Bip]V[NMeA][dCba][Dab][Cha]VSC[Orn][AEEA][Aun]-OH; thioether N-14) |
| 8.01 | CC(C)C[C@@H]1NC(=O)[C@H](Cc2c[nH]c3ccccc23)NC(=O)[C@H](CC(=O)O)NC(=O)[C@H](Cc2ccc(C(=O)O)cc2)NC(=O)[C@H](Cc2ccc(OCC(=O)O)cc2)NC(=O)CSC[C@@H](C(=O)NCCOCCOCC(=O)NCCCCCCCCCCC(=O)O)NC(=O)[C@H](CO)NC(=O)[C@H](C(C)C)NC(=O)[C@H](CC2CCCCC2)NC(=O)[C@H](CCN)NC(=O)[C@@H](CC(C)C)NC(=O)[C@H](C)N(C)C(=O)[C@H](C(C)C)NC(=O)[C@H](Cc2ccc(-c3ccccc3)cc2)NC1=O [Example 2225] ({CH2CO}-Y(Carboxymethyl)[Phe(4-COOH)]DWL[Bip]V[NMeA][dL][Dab][Cha]VSC[AEEA][Aun]-OH; thioether N-14) |

Same assay, conditions: PE-labeled PD-L1-Ig 20 nM final, Jurkat-hPD-1 cells; read-out: Jurkat HPD1 PDL1 IC50

| pIC50 | Structure (SMILES) |
| --- | --- |
| 9.15 | Cc1cccc(C[C@@H]2NC(=O)[C@H](CC(=O)O)NC(=O)[C@H](Cc3ccc(OCC(=O)O)cc3)NC(=O)[C@H]([C@@H](C)O)NC(=O)CSC[C@@H](C(=O)N[C@@H](CCN)C(=O)NCCOCCOCC(=O)NCCCCCCCCCCCC(=O)O)NC(=O)[C@H](CCC(=O)O)NC(=O)[C@H](C(C)C)NC(=O)[C@H](CC3CCCCC3)NC(=O)[C@H](CCN)NC(=O)[C@@H](CC(C)C)NC(=O)[C@H](C)N(C)C(=O)[C@H](Cc3ccc(OCC(=O)O)cc3)NC(=O)[C@H](Cc3ccc(-c4ccccc4)cc3)NC(=O)[C@H](Cc3ccc(O)cc3)NC2=O)c1 [Example 2666] ({CH2CO}-TY(Carboxymethyl)D[Phe(3-Me)]Y[Bip]Y(Carboxymethyl)[NMeA][dL][Dab][Cha]VEC[Dab][AEEA][12Ado]-OH; thioether N-14) |
| 7.24 | Cc1cccc(C[C@@H]2NC(=O)[C@H](CC(=O)O)NC(=O)[C@H](Cc3ccc(OCC(=O)O)cc3)NC(=O)[C@H]([C@@H](C)O)NC(=O)CSC[C@@H](C(=O)N[C@@H](CCN)C(=O)NCCCCCCCCCCCC(=O)NCCCCCCCCCCCC(=O)O)NC(=O)[C@H](CCC(=O)O)NC(=O)[C@H](C(C)C)NC(=O)[C@H](CC3CCCCC3)NC(=O)[C@H](CCN)NC(=O)[C@@H](CC(C)C)NC(=O)[C@H](C)N(C)C(=O)[C@H](Cc3ccc(OCC(=O)O)cc3)NC(=O)[C@H](Cc3ccc(-c4ccccc4)cc3)NC(=O)[C@H](Cc3ccc(OCC(=O)O)cc3)NC2=O)c1 [Example 2682] ({CH2CO}-TY(Carboxymethyl)D[Phe(3-Me)]Y(Carboxymethyl)[Bip]Y(Carboxymethyl)[NMeA][dL][Dab][Cha]VEC[Dab][12Ado][12Ado]-OH; thioether N-14) |
| 6.23 | CC(=O)NCCCC[C@@H]1NC(=O)[C@H](C(C)(C)O)NC(=O)[C@H](CC2CCCCC2)NC(=O)[C@H](CCN)NC(=O)[C@@H](CC(C)C)NC(=O)[C@H](C)N(C)C(=O)[C@H](CCC(N)=O)NC(=O)[C@H](Cc2ccc(-c3ccccc3)cc2)NC(=O)[C@H](Cc2ccc(C(=O)O)cc2)NC(=O)[C@H](Cc2cccc(C(F)(F)F)c2)NC(=O)[C@H](CC(=O)O)NC(=O)[C@H](Cc2ccc(OCC(=O)O)cc2)NC(=O)[C@H](Cc2ccc(OCC(=O)O)cc2)NC(=O)CSC[C@@H](C(=O)N[C@@H](CCN)C(=O)NCCOCCOCC(=O)N[C@H](CCC(=O)N[C@H](CCC(=O)NCCOCCOCC(=O)NCCCCCCCCCCCCCCC(=O)O)C(=O)O)C(=O)O)NC1=O [Example 2655] ({CH2CO}-Y(Carboxymethyl)Y(Carboxymethyl)D[Phe(3-CF3)][Phe(4-COOH)][Bip]Q[NMeA][dL][Dab][Cha][Val(3-OH)]K(Ac)C[Dab][AEEA][d(γGlu)][d(γGlu)][AEEA]-{NH(CH2)14COOH}; thioether N-14) |
